Reference: patent US20030109537A1, “Methods and materials for treating bone conditions” (priority 2001, published 2003)

Tests used:
Type in all cases: in vivo, rat
[1] = tested on: osteoblasts and peritrabecular fibroblasts; assay: 3H-thymidine autoradiography; settings: continuous PTH 1 week with continuous 3H-thymidine infusion, rats
Protocol: ^3H-thymidine autoradiography was performed to determine the role of cell proliferation in contributing to the increases in osteoblasts and fibroblasts following continuous administration of PTH. ^3H-thymidine was infused continuously for the entire 1-week duration of PTH treatment in order to label all proliferating cells. […] Thus, it seems that PTH-induced osteoblasts and fibroblasts originate by different cellular pathways.

PDGF-A mRNA = assay: RNase protection assay of steady state mRNA levels
Protocol: Induction of parathyroid bone disease. Three month-old female Sprague-Dawley rats (Harlan Sprague-Dawley, Inc., Indianapolis, Ind.) were randomly divided into 3 groups, with 5 rats per group. In group 1 (pulsatile or intermittent PTH), each rat received 80 μg/kg/day human PTH (1-34) (hPTH) in vehicle (150 mM NaCl, 1 mM HCl and 2% heat-inactivated rat serum) by subcutaneous (s.c.) injection once daily for 7 days. In group 2 (vehicle), an osmotic pump (Alza Corp., Mountainview, Calif.) that delivered vehicle alone at a rate of 1 μl/hr for 7 days was implanted in each rat. In group 3 (continuous PTH), an osmotic pump that delivered 40 μg/kg/day hPTH at a rate of 1 μl/hr for 7 days was implanted in each rat. On day 8, all rats were anesthetized with ketamine (50 mg/kg): xylazine HCl (5 mg/kg) and sacrificed by decapitation. Both tibiae were removed from each rat. Right tibiae were fixed by immersion in 70% ethanol then processed for bone histology to verify the appearance of peritrabecular fibrosis. Left tibiae were frozen in liquid N2 and stored at −80° C. until processed for RNA isolation.
Isolation of RNA. Frozen proximal tibial metaphyses were individually homogenized in guanidine isothiocyanate using a Spex freezer mill (Industries, Inc., Edison, N.J.). Total RNA was extracted from the homogenate using a modified organic solvent method. See Chomczynski et al., Anal. Biochem., 162:156-159 (1987). Isolated RNA yields were determined spectrophotometrically at 260 nm using standard methods.
RNase protection assay. Steady state mRNA levels for PDGF-A and other growth factors were determined using an RNase protection assay kit according to the manufacturer's protocol (Pharmingen, San Diego, Calif.). Quantitation of protected RNA fragments was performed by PhosphoImager analyses and normalized to glyceraldehyde-3-phosphate dehydrogenase (GAPDH) and the ribosomal structural protein L32.
RNase protection assays were performed as described in Example 1, for PDGF-A, BMP-1, BMP-6, BMP-3, and TGF-β1 to verify the microarray data. […]

[2] = tested on: PTH-induced marrow fibrosis and osteoclast resorption; assay: Bone histomorphometry in rats given trapidil, continuous PTH or both
Protocol: Treatment protocol. Three month-old female Sprague-Dawley rats were divided into 4 groups. In group 1 (n=9), osmotic pumps that delivered vehicle alone at a rate of 1 μl/hr for 7 days were implanted in each rat. […] In groups 3 and 4 (n=8 and 10, respectively), osmotic pumps were implanted in each rat that delivered 40 μg/kg/day hPTH at a rate of 1 μl/hr for 7 days. […] Tetracycline (20 mg/kg, Sigma Chemical Co., St. Louis, Mo.) and calcein (20 mg/kg, Sigma) fluorochrome labels were injected at the base of the tail on day 0 (tetracycline) and day 6 (calcein). On day 8, all rats were anesthetized and blood was collected by cardiac puncture. The blood samples were used to determine serum chemistry and PTH levels. Following blood collection, the rats were sacrificed by cervical dislocation, and tibiae were surgically removed and fixed in 70% ethanol for bone histomorphometry.
Bone histomorphometry. Proximal metaphyses were dehydrated in a graded series of ethanol, then infiltrated and embedded in methymethacrylate (Fisher Scientific, Fair Lawn, N.J.). […] Dynamic histomorphometric cancellous bone measurements were made in the unstained sections using fluorescent microscopy to detect the injected tetracycline and calcein markers. After obtaining the cancellous bone measurements, consecutive sections were stained with toluidine blue for bone cell and peritrabecular fibrosis measurements using light microscopy. A standard sampling site of 2.8 mm was located in the secondary spongiosa of the metaphysis at 1.5 mm distal to the growth plate.
All histomorphometric measurements were made with an Osteomeasure image analysis system (OsteoMetrics, Atlanta, Ga.) coupled to a photomicroscope and personal computer. All parameters were calculated according to standardized nomenclature. See, for example, Parfitt et al., J. Bone Miner. […] Bone volume was defined as the percentage of tissue volume consisting of cancellous bone. Tetracycline and calcein labels were determined as the percentage of bone perimeter labeled with fluorochrome. Mineral apposition rate (MAR) was defined as the average width between tetracycline and calcein label divided by interlabel time of 6 days. Bone formation rate (BFR) was defined as the product of MAR and the calcein label perimeter, and was expressed per bone surface (BFR/BS), bone volume (BFR/BV), or tissue volume (BFR/TV). Osteoblast surface was defined as a palisade of large basophilic cuboidal cells directly lying on top of the osteoid, and was expressed as a percent of bone perimeter. Osteoclast surface was defined as the bone perimeter lined by multinucleated cells regardless of the presence of erosion. Fibrotic perimeter was defined as the bone perimeter lined by multilayers of fibroblasts.
Statistical analysis. Multiple group comparisons were determined using one-way analysis of variance (one-way ANOVA) with statistical significance at P<0.05. Differences between pairs of groups were compared by the Fisher's protected least significant difference post-hoc test.
Serum and bone samples were collected after 7 days and analyzed.

[3] = rat proximal tibial metaphysis cancellous bone, day 8, trapidil 40 mg/kg/day s.c., hPTH 40 μg/kg/day continuous, mean ± SEM

## human PTH (1-34)
[1]
  3H-thymidine labeling of PTH-induced osteoblasts: unlabeled
  3H-thymidine labeling of most of the peritrabecular fibroblasts induced by PTH: labeled
PDGF-A mRNA; RNase protection assay verifying microarray data
  PTH-induced regulation of mRNA levels for BMP-1, -3, and -6, as well as TGF-β: confirmed
PDGF-A mRNA; continuous PTH, rat tibial metaphysis, RNase protection assay, normalized to L32
  increase in the mRNA levels for PDGF-A: 3.3 fold
PDGF-A mRNA; pulsatile PTH, rat tibial metaphysis, RNase protection assay
  effect on steady state mRNA levels for PDGF-A: no effect
[2]; continuous PTH, rats
  cancellous bone formation (per bone surface, bone volume, or tissue volume): stimulated
[2]; continuous PTH, rats, FIG. 2B
  osteoclast-lined surface (Oc.S/BS): increased
[2]; continuous PTH, rats, FIG. 3
  peritrabecular fibrosis: induced extensive peritrabecular fibrosis
[2]; continuous PTH, trapidil given with continuous PTH, FIG. 2A
  osteoblast surface (Ob.S/BS): increased
[2]; fluorochrome-based analysis of tibial metaphyseal sections, rats
  effect on cortical bone histomorphometry: neither trapidil nor PTH treatment had any effect
[2]; [3]
  BFR/BS (bone formation rate per bone surface): 0.71 ± 0.10^ab μm^3/μm^2/day
  BFR/BV (bone formation rate per bone volume): 2.30 ± 0.31^ab %
  BFR/TV (bone formation rate per tissue volume): 0.63 ± 0.09^ab %
  BV/TV (bone volume per tissue volume): 27.25 ± 1.14%
  Calcein label: 48.08 ± 5.35^ab %
  MAR (mineral apposition rate): 1.29 ± 0.08 μm/day
  Tetracycline label: 5.65 ± 2.48%
